The values that follow come from US20060088545A1, “Use of inhibitors of the protease of the human immunodeficiency virus (hiv) to block cell migration and/or invasion, tissue infiltration and oedema for the therary of diseases associated therewith” (priority 2001, published 2006).

Assay [1] concerns hepato-carcinoma (SK-Hep-1) cells. As to the kind of experiment: Invasion assay of SK-Hep-1 cells in response to bFGF. It counts as cell-based, human. The following applies: 0.1, 1 or 10 μM. On the procedure: The invasion assays were performed in the Boyden chamber. Polycarbonate filters ([…]; Nucleoprobe, Cabin John, Md.) were coated first with collagen IV and then with Matrigel (Collaborative Biomedical Products) as described previously (Barillari et al., 1999b). […] Human recombinant bFGF (50 ng/ml) was placed in the lower compartment as chemo-attractant. […] Louis, Mo.). Ten random filter fields were counted by light microscopy as described previously (Barillari et al., 1999b).

Assay [2] has as its system vascular permeability and oedema induced by KS cells. Kind of assay: Vascular permeability and oedema induced by KS cells in nude mice (Evans blue). It counts as in vivo.
Description: As a control, each animal was inoculated controlaterally with the same volume of diluting buffer and Matrigel. After 18 hours the animals were sacrificed and the quantity of staining decanted in the inoculation site of the KS cells was measured at the level of the two largest perpendicular diameters by means of a gauge. The quantity of staining decanted was also assessed after taking skin from the inoculation site and quantified with the spectrophotometer after extraction with formamide for 24 hours at 56° C. […] The quantity of staining decanted was calculated after subtraction of the optical density measured on the control site.
After 12 hours the animals were sacrificed, the stained area present on the site of inoculation of the KS cells was measured with a caliper and the extravasated dye was extracted from tissues with formamide and measured by spectrophotometry (Nakamura, Science 1992).
The subject of assay [3] is EA-hy 926 cells. Kind of assay: Tumour angiogenic lesions induced by Ea-hy 926 cells in nude mice, no drug pre-treatment. The assay is classed as in vivo. To be noted: treatment started on the day of cell inoculation, 5 days. On the procedure:
Mice were inoculated subcutaneously into the lower back with Ea-hy 926 cells (3×10^6 cells/animal in 0.2 ml of 10% FBS RPMI 1640) or with the resuspension medium, all mixed with 0.2 ml of growth factor-depleted matrigel (BD Biosciences, Bedford, Mass.) prior to inoculation as described above. […] Treatment was then continued for 5 days, until sacrifice. The size of the lesions present at the injection site was evaluated daily by caliper measurement. External lesion area was then calculated as the product of the two major lesion diameters. The mean size (cm^2) of the lesions present at the injection site is shown.
To determine whether HIV-PI could inhibit the growth of a malignant angiogenic tumour, nude mice were inoculated with the EA-hy 926 cell line. This cell line is derived from a hybrid between H-UVEC and human lung adeno-carcinoma cells (Edgell et al, PNAS 1983), retains most of the endothelial cell markers and is used as an angiogenic tumour model (Albini et al, Nat Med 1996; Albini et al, PNAS 1995; Cai et al, Lab Invest 1999). HIV-PI were administered to nude mice starting 2 days prior to tumour cell inoculation. […] Similarly, the external tumour area was reduced in mice treated with both HIV-PI (P<0.05), reaching the size of the negative controls (Table 7). […] Inhibition of tumour growth was also observed in the absence of drug pre-treatment (FIG. 25). […]

Assay [4] has as its system casein-degrading MMPs. Kind of assay: Casein zymography of supernatants from HUVEC treated with bFGF or TPA. It counts as cell-based, human. The following applies: 10 μM; 8 or 24 hours. The procedure: FIG. 11. Saquinavir blocks the production of casein-degrading MMPs by endothelial cells. […] Aliquots of cell supernatants normalised to total cell number were then analysed for MMP activity by gel zymography as described above in gels containing casein (2 mg/ml) instead of gelatin.). Panel A: casein zymography performed with cell supernatants harvested after 8 hours of culture in the presence of TPA or bFGF; Panel B: casein zymography performed with cell supernatants harvested after 24 hours of culture in the presence of TPA or bFGF. Casein is specifically cleaved by stromelysins (MMP-3, MMP-10, MMP-11) and matrilysin (MMP-7) (Whittaker and Ayscough, 2001) This led to the appearance of destained areas due to caseinolytic activity present in cell supernatants.

Assay [5] relates to dermal microvascular endothelial cells (H-DMVEC). Kind of assay: Invasion assay of dermal microvascular endothelial cells in response to bFGF. The assay is classed as cell-based, human. On the procedure:
Both assays were performed by the Boyden chamber separated in two compartments by polycarbonate filters with 12 μm pores (Nucleoprobe, Cabin John, Md.), coated with collagen IV (Collaborative Biomedical Products) for migration, or with collagen IV and Matrigel together for invasion, as described previously (Barillari et al., 1999b). […] After 5 hours (migration) or 6 hours (Invasion) of incubation, the non-migrated cells present on the top surface of the filters were mechanically removed, while the migrated cells on the bottom surface were fixed in methanol and stained with toluidine blue (Sigma Chemical Co., St. Louis, Mo.). The cells present in 5-10 microscopic fields of the filters, chosen at random, were counted as described previously (Barillari et al., 1999b).
Basal invasion in the absence of bFGF was assumed as 100%.

The test system of assay [6] is endothelial/lung carcinoma hybrid (Ea-hy 926) cells. As to the kind of experiment: Cell growth assay of Ea-hy 926 cells. The assay is classed as cell-based, human. The following applies: 1 μM; 5 days. The procedure: The assays have been performed essentially as described in key to FIG. 1. No growth factors were added to EA-hy 926 cells since they produce factors which mediates cell growth in autocrine fashion (Edgell et al., 1983, Albini et al., PNAS 1995, Albini et al., Nat Med 1996). […] The assays have been performed essentially as described in legend to FIG. 3. Average and variation range of two independent experiments each performed in duplicate are shown.

Assay [7] has as its system KS cells. As to the kind of experiment: KS cell invasion of matrigel, Boyden chamber, bFGF chemo-attractant. The assay is classed as cell-based, human. The following applies: KS3, KS8, KS12 strains; dose-dependent. The procedure: Both drugs inhibited the capacity of the KS cells to invade the Matrigel membrane in a dose-dependent manner. In particular, both the HIV-PI inhibited invasion as compared to the levels observed in control KS cells (p<0.05).
The assay was performed as described in FIG. 3. […] The cells were harvested and then plated in duplicate (5×10^5 in a culture medium containing 0.05% BSA) in the upper compartment of the Boyden chamber, always in the presence of HIV-PI or buffer. bFGF (20 ng/ml) was placed in the bottom compartment as a chemo-attractant.
After 6 hours the cells that invaded the matrigel membrane were stained and counted as described in the key to FIG. 3.
In contrast, both drugs inhibited KS cell capability of invading a matrigel substrate in a dose-dependent manner. In particular, both HIV-PI inhibit the invasion of KS cells by 30-40% (p<0.05) (Table 4 and FIG. 13).
Migration and invasion assays were carried out essentially as detailed in the key to FIGS. 2 and 3.

Assay [8] concerns MMP-2. As to the kind of experiment: Gelatin zymography of supernatants from TPA-stimulated HUVEC. It counts as cell-based, human. The following applies: TPA 50 nM; 8 hours; 10 μM.
Description: HUVEC were cultivated for 24 hours in RPMI 1640 with the addition of 10% FBS. […] Aliquots of cell supernatants were then assayed for MMP-2 activity by gel zymography as described above. HT1080 is a tumour cell line secreting large amount of MMP-2 that was used as a control. […] The amount of supernatant analysed was normalised to the total cell number.

`CC(C)(C)NC(=O)[C@@H]1C[C@@H]2CCCC[C@@H]2CN1C[C@@H](O)[C@H](Cc1ccccc1)NC(=O)[C@H](CC(N)=O)NC(=O)c1ccc2ccccc2n1` [Saquinavir, saquinavir]: the “invasive capacity in response to bFGF” value in assay [1] is listed as “inhibit”. Besides, the “reduction of the stained area (measurement with a gauge/caliper)” value in assay [2] came to 47.5%. In addition, the “reduction of the amount of extravasated dye (spectrophotometer)” value in assay [2] (formamide extraction) came out at 44.5%. Moreover, the “regression of tumour angiogenic lesions (lesion size)” value in assay [3] is “promote the regression”. Moreover, in assay [4], the “release of casein-degradation activity induced by bFGF or TPA” value was “inhibited”. In assay [5], the “invasion in response to bFGF” value is reported as “inhibit”. For the same compound, the proliferation entry in assay [6] was “do not interfere”. Further, in assay [7], the “invasive capacity of KS cells” value is listed as “inhibit”.

As to `CC(C)(C)NC(=O)[C@@H]1CN(Cc2cccnc2)CCN1C[C@@H](O)C[C@@H](Cc1ccccc1)C(=O)N[C@H]1c2ccccc2C[C@H]1O` [Indinavir, indinavir], in assay [1], the “invasive capacity in response to bFGF” value was “inhibit”. The “regression of tumour angiogenic lesions (lesion size)” value in assay [3] is given as “promote the regression”. In addition, the “invasion in response to bFGF” value in assay [5] is listed as “inhibit”. In addition, the proliferation entry in assay [6] is “do not interfere”. In addition, the “total amount of MMP-2 released by cells in the presence of TPA” value in assay [8] is on record as “inhibited”. Also, the “invasive capacity of KS cells” value in assay [7] is “inhibit”.
